Laboratory results published in article PMC8359193, “Summary of reference chemicals evaluated by the fish short‐term reproduction assay, OECD TG229, using Japanese Medaka, Oryzias latipes” (Journal of Applied Toxicology, 2021).

Legend:
[1] = test system: Japanese medaka (Oryzias latipes); assay: Fish short-term reproduction assay (FSTRA, OECD TG229), 21-day flow-through exposure; settings: for Fertility rate (%) / Mortality (%) Female / Mortality (%) Male / Number of fertilized eggs / Number of total eggs / SSC Female / SSC Male / VTG (ng/mg of liver) Female / VTG (ng/mg of liver) Male: 21 days; for GSI Female / GSI Male / HSI Female / HSI Male / Length Female / Length Male / Weight Female / Weight Male: at completion of exposure
Experimental: The experimental studies on the FSTRA for the 16 chemicals were conducted in two laboratories in Japan, the National Institute for Environmental Studies (NIES, Lab‐1) and the Institute of Environmental Ecology, IDEA Consultants Inc. (Lab‐2), in accordance with OECD TG229 (OECD, [2012a]) (Table 1).
The NIES‐R strain of Japanese medaka (O. latipes), one of the orange‐red varieties, was used in all the 16 chemical studies. For the studies, healthy and mature male and female medakas at 16 ± 2 weeks old were selected from a single‐stock population, which were bred within the test facilities. The test fish were maintained in conditions similar to the assay for at least 7 days, and spawning status was checked during the acclimation period. On the day the chemical exposure commenced, to ensure balanced distribution of test fish between the treatment groups for the reproductive status of the fish, the replicate vessels (fish tanks), with each containing three male and female medaka, were distributed to each treatment and control group, for example, by a randomized block design based on the number of fertilized eggs laid in the last 5–7 days during the acclimation, in each assay.
The water solubility of the test chemical was also taken into consideration when deciding the highest test concentration. To set the lower concentrations, a spacing factor ranging between two and five was used. All assays included a dilution water control (DWC).
Test solutions at the selected concentrations were prepared by diluting a stock solution, which was prepared by an adequate method depending on the physicochemical properties of the test chemicals, for example, by simply mixing the test chemical in dilution water by stirring and/or sonicating for an appropriate time or by using a solid–liquid saturator. In the two laboratories, flow‐through exposure systems, in which a series of test solutions at the target concentrations can be continuously prepared and delivered to test vessels at controlled flow rates (Haselman et al., [2016]; Watanabe et al., [2017]), were used for the exposure experiments.
In the FSTRA, three mature adult males and females in a test vessel were exposed together to the test chemicals in flow‐through condition for 3 weeks. In all the assays, each treatment group, including the DWC group, contained four replicate tanks. During the exposure period, the fish were fed a sufficient amount of live brine shrimp nauplii (newly hatched Artemia sp.) for daily spawning ad libitum. Fecal material in the tanks was appropriately removed by siphoning after feeding. Water temperature of test solutions was recorded for at least one vessel in each treatment and control group every day and for all vessels at least once a week. Furthermore, dissolved oxygen and pH of test solutions were measured for all test vessels at least once a week. Mortality and abnormal behavior and appearance in the fish exposed to test chemicals were daily observed, and any fish that died were removed from the tank as soon as possible. To assess the reproductive status, all eggs females spawned were collected every day. At the completion of the chemical exposure, surviving fish in each tank were sampled.
The eggs females released on the bottom of the tank were collected by siphoning, and the egg clutches still on female abdomen were carefully picked from the body of the females captured using a small net. All the eggs collected were microscopically observed and separately counted for fertilized and unfertilized.

Japanese medaka = settings: long-term exposure, MMT; ref Flynn et al. (2017); cited from earlier work

C[C@]12CC[C@@H]3c4ccc(O)cc4CC[C@H]3[C@@H]1CC[C@@H]2O [E2, 17β‐Estradiol]
LOEC on VTG induction in male (in molarity) ([1]; hepatic VTG, 21-day exposure): 81 pM
LOEC for VTG induction in males ([1]; hepatic VTG, 21-day exposure, measured conc.): 22.1 ng/L
LOEC on male VTG induction: times smaller than the LOEC for CMP ([1]; in vivo): more than 8,000 times
effect on male GSI, in words ([1]; in vivo): significant decreasing
Fertility rate (%) ([1]; measured conc. 22.1 ng/L): 90%
Mortality (%) Female ([1]; measured conc. 22.1 ng/L): 0%
Mortality (%) Male ([1]; measured conc. 22.1 ng/L): 0%
Number of fertilized eggs ([1]; measured conc. 22.1 ng/L): 18
Number of total eggs ([1]; measured conc. 22.1 ng/L): 20 ± 2.9 /female/day
SSC Female ([1]; measured conc. 22.1 ng/L): 0 ± 0
SSC Male ([1]; measured conc. 22.1 ng/L): 109 ± 10
VTG (ng/mg of liver) Female ([1]; measured conc. 22.1 ng/L): 3,420 ± 991 ng/mg of liver
VTG (ng/mg of liver) Male ([1]; measured conc. 22.1 ng/L): 424 ± 379 ng/mg of liver
GSI Female ([1]; measured conc. 22.1 ng/L): 10.3%
GSI Male ([1]; measured conc. 22.1 ng/L): 0.82%
HSI Female ([1]; measured conc. 22.1 ng/L): 4.4%
HSI Male ([1]; measured conc. 22.1 ng/L): 2.0%
Length Female ([1]; measured conc. 22.1 ng/L): 36.8 mm
Length Male ([1]; measured conc. 22.1 ng/L): 36.4 mm
Weight Female ([1]; measured conc. 22.1 ng/L): 573 mg
Weight Male ([1]; measured conc. 22.1 ng/L): 507 mg
Fertility rate (%) ([1]; measured conc. 115 ng/L): 95%
Mortality (%) Female ([1]; measured conc. 115 ng/L): 8%
Mortality (%) Male ([1]; measured conc. 115 ng/L): 8%
Number of fertilized eggs ([1]; measured conc. 115 ng/L): 21
Number of total eggs ([1]; measured conc. 115 ng/L): 22 ± 1.5 /female/day
SSC Female ([1]; measured conc. 115 ng/L): 0 ± 0
SSC Male ([1]; measured conc. 115 ng/L): 112 ± 10
VTG (ng/mg of liver) Female ([1]; measured conc. 115 ng/L): 5,500 ± 1,370 ng/mg of liver
VTG (ng/mg of liver) Male ([1]; measured conc. 115 ng/L): 13,400 ± 1900 ng/mg of liver
GSI Female ([1]; measured conc. 115 ng/L): 11.4%
GSI Male ([1]; measured conc. 115 ng/L): 0.67%
HSI Female ([1]; measured conc. 115 ng/L): 4.3%
HSI Male ([1]; measured conc. 115 ng/L): 2.5%
Length Female ([1]; measured conc. 115 ng/L): 35.6 mm
Length Male ([1]; measured conc. 115 ng/L): 35.8 mm
Weight Female ([1]; measured conc. 115 ng/L): 517 mg
Weight Male ([1]; measured conc. 115 ng/L): 512 mg
Fertility rate (%) ([1]; measured conc. 553 ng/L): 85%
Mortality (%) Female ([1]; measured conc. 553 ng/L): 17%
Mortality (%) Male ([1]; measured conc. 553 ng/L): 8%
Number of fertilized eggs ([1]; measured conc. 553 ng/L): 9.4
Number of total eggs ([1]; measured conc. 553 ng/L): 13 ± 1.9 /female/day
SSC Female ([1]; measured conc. 553 ng/L): 0 ± 0
SSC Male ([1]; measured conc. 553 ng/L): 97 ± 14
VTG (ng/mg of liver) Female ([1]; measured conc. 553 ng/L): 18,900 ± 5,910 ng/mg of liver
VTG (ng/mg of liver) Male ([1]; measured conc. 553 ng/L): 19,900 ± 3,570 ng/mg of liver
GSI Female ([1]; measured conc. 553 ng/L): 11.2%
GSI Male ([1]; measured conc. 553 ng/L): 0.31%
HSI Female ([1]; measured conc. 553 ng/L): 4.4%
HSI Male ([1]; measured conc. 553 ng/L): 3.2%
Length Female ([1]; measured conc. 553 ng/L): 35.0 mm
Length Male ([1]; measured conc. 553 ng/L): 35.0 mm
Weight Female ([1]; measured conc. 553 ng/L): 512 mg
Weight Male ([1]; measured conc. 553 ng/L): 488 mg
effect on fecundity (number of total eggs), in words ([1]; within the test concentrations, 21-day exposure): significant decrease
LOEC on male VTG induction (Japanese medaka): 28 ng/L
